Results taken from US9067920B2, “Compounds useful for inhibiting Chk1” (Eli Lilly and Company, priority 2010, dated 2015).
Structures can show the parent of a compound that is named as a salt.

Experiments:
Chk1 = target: T1, Chk1 (Homo sapiens, UniProt O14757); test: Chk1 autophosphorylation cell based assay (phospho-Chk1 serine 296 immunoblot, doxorubicin-treated HeLa cells); parameters: endogenous in cells; host or cells: HeLa; settings: 100 nM doxorubicin, 2 h compound, read-out: EC50 (inhibition of doxorubicin induced Chk1 autophosphorylation)
T1 sequence (O14757 1-476): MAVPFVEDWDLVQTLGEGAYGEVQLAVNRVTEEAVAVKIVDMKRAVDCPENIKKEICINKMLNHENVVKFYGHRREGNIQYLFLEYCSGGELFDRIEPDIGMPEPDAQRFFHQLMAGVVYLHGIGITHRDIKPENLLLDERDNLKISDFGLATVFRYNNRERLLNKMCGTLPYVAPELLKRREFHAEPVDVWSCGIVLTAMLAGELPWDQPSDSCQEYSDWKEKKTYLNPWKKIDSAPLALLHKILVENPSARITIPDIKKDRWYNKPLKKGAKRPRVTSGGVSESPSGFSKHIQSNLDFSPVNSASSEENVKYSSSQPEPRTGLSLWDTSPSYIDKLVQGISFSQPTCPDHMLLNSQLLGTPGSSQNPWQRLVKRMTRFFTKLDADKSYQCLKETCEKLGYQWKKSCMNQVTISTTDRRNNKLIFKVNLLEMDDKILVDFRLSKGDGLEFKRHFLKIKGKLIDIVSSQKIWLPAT
Procedure: An inhibitor of Chk1 will prevent the kinase activity of the protein from phosphorylating substrates in cells in which the DNA damage response has been activated. An easily detectable substrate for Chk1 is an autophosphorylation site on Chk1 itself, serine 296. The following immunoblot assay can be used to measure the amount of phosphorylation of serine 296 on Chk1 and indirectly the activity level of the Chk1 protein kinase, HeLa cells are cultured in MEM w/Earle's Balanced Salt Solution with L-glutamine supplemented with 10% (v/v) heat inactivated fetal bovine serum, 1×MEM non-essential amino acids, 1× sodium pyruvate and 1×10^5 cells plated in 600 μL of MEM culture media per well of a […] cell culture plate. Cells are incubated for 24 h at 37° C., 5% CO2 and […]. Sixteen μL of a 4 μM stock of doxorubicin in culture media are added to each appropriate well to make a final concentration of 100 nM doxombicin. Plates are returned to the incubator for 24 additional hours prior to Chk1 inhibitor compound addition. […] Antigen-antibody-reporter conjugates immobilized on the membrane are detected with the Super Signal Western Femto HRP-detection reagent using a FUJI LAS-4000 imaging system. Phospho-Chk1 (ser296) band intensities are calculated using “Total Lab” software (Nonlinear Dynamics). […]

[1] = test system: Calu-6 lung tumor xenograft; test: Calu-6 tumor xenograft model, subcutaneous administration of Chk1 inhibitor; format: in vivo, nude mice
Procedure: The ability of Chk1 inhibitors to potentiate tumor killing by DNA damaging agents can be determined in vivo using the Calu-6 lung and HT-29 colon tumor xenograft efficacy models. Calu-6 lung cancer cells are cultured in growth media (MEM with Earle's Balanced Salt Solution with L-glutamine supplemented with 10% (v/v) heat inactivated FBS, 1×MEM non-essential amino acids, 1× sodium pyruvate) and HT-29 colon cancer cells (ATCC) are cultured in growth media, (McCoy's 5A medium supplemented with 10% FBS) and expanded.
Cells are harvested and washed twice with phosphate buffered saline and 5×10^6 cells (HT-29) or 1×10^6 a cells (Calu-6) in growth media (without serum) are mixed with equal volume of BD Matrigel™ matrix, then injected subcutaneously into the flank of nude mice (CD-1 nu/nu).
At about day 16 after implant ([…]), gemcitabine is formulated fresh in saline daily and administered to animals by intraperitoneal route at 60 mg/kg dose. Twenty four hours later animals are administered the compound of Example 3, in 0.2% Tween-80/0.5% methylcellulose subcutaneously BID. After […], dosing is repeated for three additional cycles (Q4Dx4 with the compound of Example 3 offset+24 hours), Tumor growth inhibition (TGI) is calculated as the percent reduction in mean tumor size of a compound treated group from the mean tumor size of the vehicle-treated control group. Compounds within the scope of the invention are tested in this assay run substantially as above.

Structure (SMILES)	EC50 (Chk1) [nM]	% TGI at day 47 ([1]; Calu 6, Example 3 40 mpk subcutaneous BID alone) [%]	anti-tumor activity in combination with gemcitabine ([1]; Calu-6 xenograft, subcutaneous BID, gemcitabine 60 mg/kg ip)
COc1nc(C)ccc1-c1cc(Nc2cncc(O[C@@H]3CCCNC3)n2)[nH]n1 [Example 1, (R)-[5-(2-Methoxy-6-methyl-pyridin-3-yl)-2H-pyrazol-3-yl]-[6-(piperidin-3-yloxy)-pyrazin-2-yl]-amine]	< 1	–	–
COc1nc(C)ccc1-c1cc(Nc2cncc(O[C@@H]3CCCNC3)n2)[nH]n1 [Example 3, (R)-[5-(2-Methoxy-6-methyl-pyridin-3-yl)-2H-pyrazol-3-yl]-[6-(piperidin-3-yloxy)-pyrazin-2-yl]-amine acetic acid salt]	–	−19	excellent dose dependent anti-tumor activity
